We go through one substance from patent US20230218776A1, “ANTI-NTB-A ANTIBODIES AND RELATED COMPOSITIONS AND METHODS” (SEAGEN INC., priority 2015, published 2023).

Assay type in all cases: cell-based
For test [1], the system named is WIL2-S cell line. As to the kind of experiment: ADCC, chromium-51 release with NK effector cells. To be noted: NK effector to target 10:1, 4 hours. How it is done:
Antibody-Dependent Cellular Cytotoxicity (ADCC) Activity Assay: ADCC cytotoxic activity was measured by chromium-51 release in which effector natural killer (NK) cells kill (lyse) target cells via binding to the antibody or ADC on the target cells. WIL2-S cells were labeled with chromium-51, bound with antibody (0.1 ng/mL-10 μg/mL), and then incubated with NK cells at an effector to target ratio of 10:1 for 4 hours at 37° C., 5% CO2. Supernatant was removed to a filter plate and chromium-51 counts were measured with a TopCount (Perkin Elmer, Waltham, Mass.). Data was expressed as a percentage of maximum specific cell lysis determined with a positive control of 1% TritonX-100-treated cells (Sigma, St. Louis, Mo.).

In test [2] the test system is Raji cell line. As to the kind of experiment: ADCP with monocyte-derived macrophages. The note with it: dilution series starting at 2 μg/mL. The protocol:
(§1) To assess NTB-A mediated ADCP activity, normal T lymphocytes or tumor cells were labeled with the red fluorescent membrane dye, PKH26, then labeled with antibody or ADC in a 5-point, 10-fold dilution series starting at 2 μg/mL. Cells were then incubated for 30 minutes on ice and washed twice with PBS. Cells were mixed with monocyte-derived macrophages for one hour at 37° C. The cell mixture was then stained with Alexa Fluor 488-conjugated murine anti-CD11b to label macrophages and analyzed by flow cytometry to detect PKH26+CD11b+ double-labeled fluorescent cells. Phagocytic activity was calculated as (percent PKH26+CD11b+)/(percent CD11b+cells) multiplied by one hundred.

Test [3] relates to WIL2-S cell line. The test is described as follows: ADCP with monocyte-derived macrophages. To be noted: dilution series starting at 2 μg/mL. How it is done: as §1
The test system of test [4] is Raji cell line. As to the kind of experiment: Complement-dependent cytotoxicity (CDC), Sytox Green. The note with it: 0.02-50 μg/mL, human serum, 2 hours. The protocol: (§2) Complement-Dependent Cytotoxicity (CDC): Normal human T cells (All Cells, Alameda, Calif.) or cancer cell lines (ATCC, Manassas, Va.) were labelledlabeled with 5 μM Sytox Green (Life Technologies, Grand Island, N.Y.), then bound with serial a serial dose titrations of anti-human NTB-A h20F3 antibody or PBD dimer ADCies (0.02-50 μg/mL) in RPMI1640 media+1020% human serum (Complement Technology, Tyler, TX or Solomon Park Research Laboratories, Kirkland, Wash. Cells were incubated at 37° C., 5% CO2 for 2 hours, and fluorescence from lysed cells was measured with an Envision plate reader (Perkin Elmer, Waltham, Mass.). Data was expressed as a percentage of maximum cell lysis determined with a positive control of 1% TritonX-100-treated cells (Sigma, ST. Louis, Mo.).
(§3) Three cell types were used for analysis: normal human T cells, WIL2-S cells, and Raji cells. Expression of relevant receptors on each cell type is found in Table 7 and is indicated as number of receptor per cell.

For test [5], the system named is WIL2-S cell line. The description is as above. The note with it: 0.02-50 μg/mL, human serum, 2 hours. How it is done:
as §2, §3

With “Rituximab: anti-CD20 antibody control [reference compound]”, the “ADCC Maximum % Specific Cell Lysis” value in test [1] is recorded as 42 ± 6.0%. Moreover, the “ADCP Maximum % Phagocytosis” value was 57% in test [2] and 56% in test [3]. Also, the “CDC Maximum % Specific Cell Lysis” value turned out to be 45 ± 5.7% in test [4] and 66 ± 1.4% in test [5].
